Measurements from PubChem BioAssay (NCI).
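Values below derive from 48-hour exposures of cells grown in 96-well plates, with endpoints linearly interpolated between the two concentrations bracketing the appropriate inhibition level. The concentration for full growth arrest is given as TGI.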

Columns and labels:
Experiment in all cases: NCI anticancer screen, dose series, 48 h
UACC-62 melanoma = tested on: UACC-62 melanoma
RPMI-8226 leukemia = tested on: RPMI-8226 leukemia
OVCAR-8 ovarian = tested on: OVCAR-8 ovarian
CAKI-1 renal = tested on: CAKI-1 renal
HOP-92 NSCLC = tested on: HOP-92 NSCLC
786-0 renal = tested on: 786-0 renal
IGROV1 ovarian = tested on: IGROV1 ovarian
A549 NSCLC = tested on: A549 NSCLC
PC-3 prostate = tested on: PC-3 prostate
HT29 colon = tested on: HT29 colon
LOX IMVI melanoma = tested on: LOX IMVI melanoma
MCF7 breast = tested on: MCF7 breast
NCI-H522 lung = tested on: NCI-H522 lung
SN12C renal = tested on: SN12C renal
UACC-257 melanoma = tested on: UACC-257 melanoma

SMILES | TGI (UACC-62 melanoma) [µM] | TGI (RPMI-8226 leukemia) [µM] | TGI (OVCAR-8 ovarian) [µM] | TGI (CAKI-1 renal) [µM] | TGI (HOP-92 NSCLC) [µM] | TGI (786-0 renal) [µM] | TGI (IGROV1 ovarian) [µM] | TGI (A549 NSCLC) [µM] | TGI (PC-3 prostate) [µM] | TGI (HT29 colon) [µM] | TGI (LOX IMVI melanoma) [µM] | TGI (MCF7 breast) [µM] | TGI (NCI-H522 lung) [µM] | TGI (SN12C renal) [µM] | TGI (UACC-257 melanoma) [µM]
COCCOCCOC1=C(Cl)C(=O)c2c(O)ccc(O)c2C1=O | 7.85 | 3.07 | 5.99 | 3.17 | 3.95 | 2.61 | 7.37 | 25.5 | 17.5 | 8.73 | 4.59 | 4.62 | 2.99 | 3.7 | 4.04
Brc1ccc2[nH]cc(-c3nc(-c4c[nH]c5ccccc45)cs3)c2c1 | 6.95 | > 20.7 | 20.9 | 8.2 | 7.86 | 8.55 | 8.75 | 15.8 | 9.55 | 3.56 | 4.68 | > 100 | 3.73 | 13.9 | 15.4
CN(CCc1ccc(N)cc1)[C@H]1CCCC[C@H]1N1CCCC1 | > 100 | > 100 | > 100 | > 100 | > 100 | > 100 | > 100 | > 100 | > 100 | > 100 | > 100 | > 100 | > 100 | > 100 | > 100
Cc1cccc2c1NC(=S)[C@@H]1CCCN1C2=O | > 100 | > 100 | > 100 | > 100 | > 100 | > 100 | > 100 | > 100 | > 100 | > 100 | > 100 | > 100 | > 100 | > 100 | > 100
COc1ccc2c3c1OC1c4[nH]c5ccccc5c4CC4(O)C(C2)N(C)CCC314 (stereo not given) | 57.3 | 45.9 | > 100 | > 100 | 48.7 | 34.3 | > 100 | > 100 | > 100 | 49.3 | 52 | 60.4 | 81.4 | > 100 | 34.1
C(=C\C(SCc1ccccc1)SCc1ccccc1)/c1ccccc1 | > 10 | > 10 | > 10 | > 10 | > 10 | > 10 | > 10 | > 10 | > 10 | > 10 | > 10 | > 10 | > 10 | > 10 | > 10
C=CC[C@H](C)CCC(=O)N1[C@H]2CC3CC[C@@]2(CS1(=O)=O)C3(C)C | > 100 | > 100 | > 100 | > 100 | > 100 | > 100 | > 100 | > 100 | > 100 | 49 | 83 | > 100 | 99 | > 100 | > 100
C#C[C@]1(O)CC[C@H]2[C@@H]3CCc4cc(OC(=O)c5cccc6cc7ccccc7nc56)ccc4[C@H]3CC[C@@]21C | 80.4 | > 100 | > 100 | 65.1 | > 100 | 96.4 | > 100 | > 100 | > 100 | > 100 | 66 | > 100 | 50.5 | 54.7 | > 100
CSc1ccc(/C=C2\N=C(c3ccccc3)N(c3nc4ccc(Sc5ccccc5)cc4[nH]3)C2=O)cc1 | 39.1 | 57.2 | > 87.4 | > 94 | 34 | 50.8 | > 100 | > 97.2 | > 87.9 | 50.4 | 41.6 | 45.9 | 39.9 | > 84.2 | 55.6
COc1ccc(N=C(Nc2ccc(OC)cc2)C(=Nc2ccc(OC)cc2)Nc2ccc(OC)cc2)cc1 | > 100 | > 100 | > 100 | > 100 | > 100 | > 100 | > 100 | > 100 | > 100 | > 100 | > 100 | > 100 | > 100 | > 100 | > 100
C1=C\CCCCN2C[C@H]3CCCC/C=C\CCCCN4CC[C@@H]([C@H](CCCCCC/1)C4)[C@H](C3)C2 | 3.67 | 3.56 | 7.74 | 5.6 | > 20.2 | 3.16 | 11.3 | 6.95 | 14.5 | 5.1 | 3.22 | 4.5 | 3.33 | 22.9 | 3.28
Cn1c2ccccc2c(=NNc2ccc(C(=O)O)cc2)c2ccccc21 | 44.1 | 53.1 | 33.5 | 63.4 | 57.7 | 84.4 | 95 | 38.7 | 43.9 | 32.3 | 24.1 | 26.5 | 27.2 | 75.3 | 57
CCOC(=O)CCC(NC(=O)c1ccc(N2CCN(c3c(C)nc(N)nc3N)CC2)cc1)C(=O)OCC (stereo not given) | > 100 | 6.94 | > 100 | > 100 | > 100 | > 100 | > 100 | > 100 | > 100 | > 100 | > 100 | > 100 | > 100 | > 100 | > 55.9
